In ChEMBL document CHEMBL3792292, “Development of a potent and selective FLT3 kinase inhibitor by systematic expansion of a non-selective fragment-screening hit” (Bioorg Med Chem Lett, 2016):

What was measured:
[1] = molecular target: Vascular endothelial growth factor receptor 2 (Homo sapiens) (UniProt P35968); assay: Inhibition of human N-terminal GST-tagged KDR cytoplasmic domain (790 to 1356 residues) expressed in baculovirus expression system using fluorescence labelled CSKtide as substrate at 50 times IC50 by electrophoretic mobility shift assay relative to control
[2] = molecular target: MAP kinase-activated protein kinase 2 (Homo sapiens) (UniProt P49137); assay: Inhibition of full length human N-terminal GST-tagged MAPKAPK2 (1 to 400 residues) expressed in baculovirus expression system coexpressing human His-tagged p38beta (1 to 364 residues)/MAP2K6 (1 to 334 residues) using fluorescence labelled GS peptide substrate at 50 times IC50 by electrophoretic mobility shift assay relative to control
[3] = molecular target: T1, Serine/threonine-protein kinase Chk1 (Homo sapiens) (UniProt O14757); assay: Inhibition of full length human N-terminal GST-tagged CHK1 (1 to 476 residues) expressed in baculovirus expression system using fluorescence labelled CHKtide as substrate at 50 times IC50 by electrophoretic mobility shift assay relative to control
T1 sequence (whole entry): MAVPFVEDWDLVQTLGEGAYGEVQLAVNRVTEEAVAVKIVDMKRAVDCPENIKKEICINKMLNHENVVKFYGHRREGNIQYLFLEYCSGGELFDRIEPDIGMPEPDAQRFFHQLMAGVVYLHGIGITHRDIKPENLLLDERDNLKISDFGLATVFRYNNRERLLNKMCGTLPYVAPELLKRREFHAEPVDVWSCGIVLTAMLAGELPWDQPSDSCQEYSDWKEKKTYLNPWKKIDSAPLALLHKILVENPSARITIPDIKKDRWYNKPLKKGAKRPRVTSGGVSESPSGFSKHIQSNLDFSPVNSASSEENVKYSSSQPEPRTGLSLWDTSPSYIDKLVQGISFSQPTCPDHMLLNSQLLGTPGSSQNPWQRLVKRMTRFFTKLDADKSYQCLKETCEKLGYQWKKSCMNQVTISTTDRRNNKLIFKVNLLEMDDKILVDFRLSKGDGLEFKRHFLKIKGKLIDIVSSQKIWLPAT

[4] = molecular target: Casein kinase I isoform epsilon (Homo sapiens) (UniProt P49674); assay: Inhibition of human N-terminal GST-tagged CK1epsilon catalytic domain (1 to 348 residues) expressed in baculovirus expression system using fluorescence labelled CKtide as substrate at 50 times IC50 by electrophoretic mobility shift assay relative to control
[5] = molecular target: Epidermal growth factor receptor (Homo sapiens) (UniProt P00533); assay: Inhibition of human N-terminal GST-tagged EGFR cytoplasmic domain (669 to 1210 residues) expressed in baculovirus expression system using fluorescence labelled srctide as substrate at 50 times IC50 by electrophoretic mobility shift assay relative to control
[6] = molecular target: Dual specificity tyrosine-phosphorylation-regulated kinase 1B (Homo sapiens) (UniProt Q9Y463); assay: Inhibition of full length human N-terminal GST-tagged DYRK1B (1 to 629 residues) expressed in baculovirus expression system using fluorescence labelled DYRKtide-F as substrate at 50 times IC50 by electrophoretic mobility shift assay relative to control
[7] = molecular target: Rho-associated protein kinase 1 (Homo sapiens) (UniProt Q13464); assay: Inhibition of human N-terminal GST-tagged ROCK1 catalytic domain (1 to 477 residues) expressed in baculovirus expression system using fluorescence labelled LIMKtide substrate at 50 times IC50 by electrophoretic mobility shift assay relative to control
[8] = molecular target: T2, Serine/threonine-protein kinase Nek2 (Homo sapiens) (UniProt P51955); assay: Inhibition of full length human N-terminal His-tagged NEK2 (1 to 445 residues) expressed in baculovirus expression system using fluorescence labelled CDK7 peptide substrate at 50 times IC50 by electrophoretic mobility shift assay relative to control
T2 sequence (whole entry): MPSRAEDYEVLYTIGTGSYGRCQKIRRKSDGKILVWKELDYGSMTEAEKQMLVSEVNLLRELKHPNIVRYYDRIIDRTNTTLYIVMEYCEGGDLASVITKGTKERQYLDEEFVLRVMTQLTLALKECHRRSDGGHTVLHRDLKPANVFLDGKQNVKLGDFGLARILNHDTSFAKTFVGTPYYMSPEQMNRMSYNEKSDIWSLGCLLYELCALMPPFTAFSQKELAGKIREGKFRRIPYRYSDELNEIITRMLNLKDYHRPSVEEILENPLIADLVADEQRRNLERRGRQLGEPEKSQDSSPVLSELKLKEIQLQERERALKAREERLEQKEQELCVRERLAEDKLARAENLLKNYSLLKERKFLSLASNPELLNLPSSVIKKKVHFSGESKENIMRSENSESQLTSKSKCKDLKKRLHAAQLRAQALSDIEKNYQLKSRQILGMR

[9] = molecular target: Hepatocyte growth factor receptor (Homo sapiens) (UniProt P08581); assay: Inhibition of human N-terminal GST-tagged MET cytoplasmic domain (956 to 1390 residues) expressed in baculovirus expression system using fluorescence labelled srctide as substrate at 50 times IC50 by electrophoretic mobility shift assay relative to control
[10] = molecular target: Ephrin type-A receptor 2 (Homo sapiens) (UniProt P29317); assay: Inhibition of human N-terminal GST-tagged EPHA2 cytoplasmic domain (572 to 976 residues) expressed in baculovirus expression system using fluorescence labelled Blk/Lyntide as substrate at 50 times IC50 by electrophoretic mobility shift assay relative to control
[11] = molecular target: Tyrosine-protein kinase SYK (Homo sapiens) (UniProt P43405); assay: Inhibition of full length human N-terminal GST-tagged SYK (1 to 635 residues) expressed in baculovirus expression system using fluorescence labelled Blk/Lyntide as substrate at 50 times IC50 by electrophoretic mobility shift assay relative to control
[12] = molecular target: Tyrosine-protein kinase Lck (Homo sapiens) (UniProt P06239); assay: Inhibition of full length human N-terminal GST-tagged LCK (1 to 500 residues) expressed in baculovirus expression system using fluorescence labelled srctide as substrate at 50 times IC50 by electrophoretic mobility shift assay relative to control
Tyrosine-protein kinase Lck (Homo sapiens), sequence (P06239 2-509 limits assumed): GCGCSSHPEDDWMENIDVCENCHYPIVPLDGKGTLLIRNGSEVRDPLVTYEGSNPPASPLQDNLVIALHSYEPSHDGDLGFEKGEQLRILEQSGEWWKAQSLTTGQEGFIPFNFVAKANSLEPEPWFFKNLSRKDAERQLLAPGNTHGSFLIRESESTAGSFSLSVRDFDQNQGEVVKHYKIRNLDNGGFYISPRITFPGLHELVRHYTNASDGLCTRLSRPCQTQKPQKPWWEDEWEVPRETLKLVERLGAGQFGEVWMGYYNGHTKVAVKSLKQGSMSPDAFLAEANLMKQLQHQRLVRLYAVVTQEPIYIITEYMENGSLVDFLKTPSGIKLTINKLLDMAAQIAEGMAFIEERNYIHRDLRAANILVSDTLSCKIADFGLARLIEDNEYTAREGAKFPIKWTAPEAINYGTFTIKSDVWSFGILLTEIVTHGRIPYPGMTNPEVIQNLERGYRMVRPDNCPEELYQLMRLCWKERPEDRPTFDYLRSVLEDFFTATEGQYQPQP

Vascular endothelial growth factor receptor 2 (Homo sapiens), sequence (P35968 whole entry, the tested form may be a part): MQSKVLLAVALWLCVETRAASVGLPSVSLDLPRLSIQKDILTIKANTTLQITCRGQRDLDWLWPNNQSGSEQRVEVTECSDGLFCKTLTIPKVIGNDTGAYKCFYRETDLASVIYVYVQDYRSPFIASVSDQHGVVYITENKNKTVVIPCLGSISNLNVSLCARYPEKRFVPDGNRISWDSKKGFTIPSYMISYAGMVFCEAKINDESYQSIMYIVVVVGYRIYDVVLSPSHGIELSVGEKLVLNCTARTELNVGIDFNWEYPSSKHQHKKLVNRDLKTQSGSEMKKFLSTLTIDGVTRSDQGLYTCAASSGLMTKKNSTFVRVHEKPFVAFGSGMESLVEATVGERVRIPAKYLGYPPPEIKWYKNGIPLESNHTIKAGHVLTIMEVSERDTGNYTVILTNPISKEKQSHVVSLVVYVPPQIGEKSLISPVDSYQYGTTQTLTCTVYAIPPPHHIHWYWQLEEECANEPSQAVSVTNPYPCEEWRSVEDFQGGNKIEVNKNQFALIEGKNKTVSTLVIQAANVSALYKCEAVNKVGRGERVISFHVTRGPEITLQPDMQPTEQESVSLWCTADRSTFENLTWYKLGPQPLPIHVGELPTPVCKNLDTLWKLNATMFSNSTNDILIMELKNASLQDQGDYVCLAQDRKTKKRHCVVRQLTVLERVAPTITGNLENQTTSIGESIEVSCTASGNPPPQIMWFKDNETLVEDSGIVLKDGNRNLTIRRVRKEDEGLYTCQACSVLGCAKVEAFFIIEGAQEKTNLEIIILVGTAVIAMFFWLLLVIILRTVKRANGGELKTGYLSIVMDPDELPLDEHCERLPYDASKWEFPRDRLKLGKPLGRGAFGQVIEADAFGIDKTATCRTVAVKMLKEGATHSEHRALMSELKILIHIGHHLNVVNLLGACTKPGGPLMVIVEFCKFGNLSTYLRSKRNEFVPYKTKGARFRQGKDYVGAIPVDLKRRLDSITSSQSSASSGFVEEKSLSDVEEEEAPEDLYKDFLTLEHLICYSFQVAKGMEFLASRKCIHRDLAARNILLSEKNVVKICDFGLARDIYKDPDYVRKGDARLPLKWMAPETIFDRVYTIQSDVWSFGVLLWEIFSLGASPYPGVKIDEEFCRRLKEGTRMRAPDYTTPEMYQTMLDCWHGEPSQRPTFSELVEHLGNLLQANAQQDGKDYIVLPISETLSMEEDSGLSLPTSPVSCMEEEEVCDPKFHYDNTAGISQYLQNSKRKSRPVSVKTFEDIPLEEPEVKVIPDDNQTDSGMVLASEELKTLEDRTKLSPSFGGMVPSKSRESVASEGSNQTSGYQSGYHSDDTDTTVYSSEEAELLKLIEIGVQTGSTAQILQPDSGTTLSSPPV
Ephrin type-A receptor 2 (Homo sapiens), sequence (P29317 whole entry, the tested form may be a part): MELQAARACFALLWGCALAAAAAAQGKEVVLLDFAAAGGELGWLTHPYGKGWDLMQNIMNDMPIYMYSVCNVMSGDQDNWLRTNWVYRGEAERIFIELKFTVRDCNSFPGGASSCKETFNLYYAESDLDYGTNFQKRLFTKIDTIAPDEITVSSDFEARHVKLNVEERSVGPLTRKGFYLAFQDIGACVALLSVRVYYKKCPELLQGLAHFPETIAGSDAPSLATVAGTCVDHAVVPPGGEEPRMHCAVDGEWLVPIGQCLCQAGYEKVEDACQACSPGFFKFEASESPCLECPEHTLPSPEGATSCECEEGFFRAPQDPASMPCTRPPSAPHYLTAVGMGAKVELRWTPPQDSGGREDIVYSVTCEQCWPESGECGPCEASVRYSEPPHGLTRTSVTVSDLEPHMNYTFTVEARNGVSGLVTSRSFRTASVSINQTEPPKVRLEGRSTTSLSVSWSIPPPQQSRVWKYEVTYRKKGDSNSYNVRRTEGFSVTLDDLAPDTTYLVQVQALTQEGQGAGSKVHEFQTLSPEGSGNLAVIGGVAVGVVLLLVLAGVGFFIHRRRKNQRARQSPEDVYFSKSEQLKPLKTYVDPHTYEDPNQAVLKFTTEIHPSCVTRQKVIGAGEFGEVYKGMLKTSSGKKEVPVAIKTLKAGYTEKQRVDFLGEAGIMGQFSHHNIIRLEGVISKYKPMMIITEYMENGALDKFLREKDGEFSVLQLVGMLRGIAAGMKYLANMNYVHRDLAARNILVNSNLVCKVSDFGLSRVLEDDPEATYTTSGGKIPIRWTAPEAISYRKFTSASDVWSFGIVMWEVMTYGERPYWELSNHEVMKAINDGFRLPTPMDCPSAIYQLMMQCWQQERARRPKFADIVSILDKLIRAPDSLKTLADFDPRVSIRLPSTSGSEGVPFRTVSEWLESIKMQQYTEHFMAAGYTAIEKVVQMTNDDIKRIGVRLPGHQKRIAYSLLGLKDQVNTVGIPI
Casein kinase I isoform epsilon (Homo sapiens), sequence (P49674 whole entry, looked up, the tested form may be a part, canonical isoform): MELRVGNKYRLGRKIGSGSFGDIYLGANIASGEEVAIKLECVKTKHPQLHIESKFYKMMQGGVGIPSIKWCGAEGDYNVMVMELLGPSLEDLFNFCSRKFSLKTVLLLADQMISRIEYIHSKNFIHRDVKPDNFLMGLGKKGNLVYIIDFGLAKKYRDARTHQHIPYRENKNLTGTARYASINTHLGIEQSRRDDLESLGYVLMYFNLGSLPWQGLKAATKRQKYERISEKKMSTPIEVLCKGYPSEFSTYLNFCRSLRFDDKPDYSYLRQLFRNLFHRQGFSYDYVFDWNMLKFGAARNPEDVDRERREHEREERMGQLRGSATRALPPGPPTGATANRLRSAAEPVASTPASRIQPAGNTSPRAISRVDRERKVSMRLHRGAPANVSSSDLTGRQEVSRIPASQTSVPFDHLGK
MAP kinase-activated protein kinase 2 (Homo sapiens), sequence (P49137 whole entry, looked up, the tested form may be a part): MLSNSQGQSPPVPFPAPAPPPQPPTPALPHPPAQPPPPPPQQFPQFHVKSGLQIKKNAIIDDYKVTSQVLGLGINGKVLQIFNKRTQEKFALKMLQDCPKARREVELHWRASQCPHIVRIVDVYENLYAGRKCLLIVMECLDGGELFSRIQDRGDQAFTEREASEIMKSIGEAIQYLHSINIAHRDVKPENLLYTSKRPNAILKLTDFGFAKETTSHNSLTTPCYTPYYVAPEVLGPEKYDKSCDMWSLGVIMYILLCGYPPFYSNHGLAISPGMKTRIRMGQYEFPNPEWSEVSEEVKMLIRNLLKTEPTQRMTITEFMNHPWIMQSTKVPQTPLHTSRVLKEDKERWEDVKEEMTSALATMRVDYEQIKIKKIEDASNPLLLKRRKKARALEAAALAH
Rho-associated protein kinase 1 (Homo sapiens), sequence (Q13464 2-1354 limits assumed): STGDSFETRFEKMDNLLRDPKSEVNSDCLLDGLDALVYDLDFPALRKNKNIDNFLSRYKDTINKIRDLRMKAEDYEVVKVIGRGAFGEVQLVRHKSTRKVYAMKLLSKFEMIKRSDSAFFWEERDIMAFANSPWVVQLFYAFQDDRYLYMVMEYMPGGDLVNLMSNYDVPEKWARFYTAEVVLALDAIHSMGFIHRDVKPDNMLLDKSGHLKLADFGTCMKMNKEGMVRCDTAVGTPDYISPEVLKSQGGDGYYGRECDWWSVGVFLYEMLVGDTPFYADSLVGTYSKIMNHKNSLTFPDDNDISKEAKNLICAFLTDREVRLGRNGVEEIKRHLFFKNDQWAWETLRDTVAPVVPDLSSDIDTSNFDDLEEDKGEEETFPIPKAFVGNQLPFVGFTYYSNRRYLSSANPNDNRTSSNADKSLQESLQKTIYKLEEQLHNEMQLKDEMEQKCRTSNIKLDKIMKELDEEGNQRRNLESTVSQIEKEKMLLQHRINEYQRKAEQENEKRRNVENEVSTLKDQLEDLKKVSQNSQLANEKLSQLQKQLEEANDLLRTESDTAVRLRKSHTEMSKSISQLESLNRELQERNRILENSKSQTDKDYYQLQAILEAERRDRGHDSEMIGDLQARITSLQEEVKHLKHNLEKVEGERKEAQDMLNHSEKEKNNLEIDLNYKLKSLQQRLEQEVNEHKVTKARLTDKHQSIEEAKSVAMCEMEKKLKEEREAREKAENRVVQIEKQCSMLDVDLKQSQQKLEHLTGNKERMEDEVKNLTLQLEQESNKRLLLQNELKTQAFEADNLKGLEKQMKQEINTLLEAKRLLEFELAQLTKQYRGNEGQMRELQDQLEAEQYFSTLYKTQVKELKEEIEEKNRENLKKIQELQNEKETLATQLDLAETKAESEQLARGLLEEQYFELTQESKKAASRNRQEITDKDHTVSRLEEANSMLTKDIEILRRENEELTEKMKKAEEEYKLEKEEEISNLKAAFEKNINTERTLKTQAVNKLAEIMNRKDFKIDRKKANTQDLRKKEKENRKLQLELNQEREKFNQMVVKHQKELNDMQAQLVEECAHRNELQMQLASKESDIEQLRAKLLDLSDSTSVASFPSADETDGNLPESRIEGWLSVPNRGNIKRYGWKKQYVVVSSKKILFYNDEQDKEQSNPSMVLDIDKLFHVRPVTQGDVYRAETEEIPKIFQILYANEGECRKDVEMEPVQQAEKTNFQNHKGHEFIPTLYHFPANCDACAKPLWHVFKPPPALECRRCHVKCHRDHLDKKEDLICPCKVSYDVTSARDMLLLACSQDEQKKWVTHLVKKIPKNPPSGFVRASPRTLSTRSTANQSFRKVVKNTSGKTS

| SMILES | inhibition [1] [%] | inhibition [2] [%] | inhibition [3] [%] | inhibition [4] [%] | inhibition [5] [%] | inhibition [6] [%] | inhibition [7] [%] | inhibition [8] [%] | inhibition [9] [%] | inhibition [10] [%] | inhibition [11] [%] | inhibition [12] [%] |
| --- | --- | --- | --- | --- | --- | --- | --- | --- | --- | --- | --- | --- |
| O=C(Nc1ccccc1)c1n[nH]c2ccccc12 | 44.2 | 5.1 | 10.9 | 51.3 | 9.1 | 53.6 | 3.3 | 2.3 | 4.6 | 0.6 | 73.5 | 5.6 |
| O=C(Nc1ccc(CN2CCN(c3ccccc3)CC2)cc1)c1n[nH]c2ccccc12 | 15.8 | 9.7 | 1 | 19.3 | 1.7 | 12.7 | 1.9 | -2.3 | -0.4 | 0.9 | 29.7 | 1.8 |
| O=C(Nc1ccc(C(=O)N2CCN(c3ccccc3)CC2)cc1)c1n[nH]c2ccccc12 | 34.2 | -7.5 | 8 | 21.3 | 0.1 | 29.4 | 6.9 | 0.2 | -0.6 | -1.6 | 40.2 | 1.8 |
